One may read the inhibition as the change of the read-out against control, counted positive when it falls.

Entries after “also recorded” stand apart in the source; their conditions may differ.

The nature of series [1]: Conversion of compounds in human plasma. The class given is in vitro ADME. Particulars: for Observed metabolite, incubation in human plasma: 1 μM test compound, 37° C., 0-6 hours, nd: not detected. On the procedure: Frozen human plasma was thawed and then centrifuged at 3200×g for 5 minutes to remove debris. The pH value of the supernatant was then measured and adjusted to 7.4±0.1 by adding 1% phosphoric acid or 1 N sodium hydroxide. 2 μL of dosing solution (50 μM for test compounds and 100 μM for positive control (propantheline bromide)) was mixed with 98 μL of blank plasma to achieve 1 μM test compound and 2 μM positive control of final concentration. The mixture was incubated, and samples were withdrawn from the incubations at the pre-determined time points of 0, 0.5, 1, 2, 4 and 6 hours (in duplicate) at 37° C. in water bath. At each corresponding time point 10 μL inhibitor and 20 μL ascorbic acid and 2 μL formic acid (20%) are added, and then added 400 μL of “stop solution” (200 ng/mL tolbutamide plus 200 ng/mL labetalol in 50% ACN/MeOH) to precipitate protein. The substance was mixed thoroughly and thereafter centrifugated at 4,000 rpm for 20 minutes. Then an aliquot of supernatant (50 μL) was transferred from each well to a sample plate and mixed with 100 μL ultrapure water. The plate was shaked at 800 rpm for about 10 minutes before submitting to LC-MS/MS analysis.
(§1) Instrumentation Used for Analysis of Plasma and Hepatocyte Incubation Samples
(§2) Mass spectrometer (LC-MS/MS) Shimadzu LC 20-AD Shimadzu UHPLC API 4000. Analytical column ACQUITY UPLC® BEH Phenyl 1.7 μm 2.1×50 mm. Mobile phase A: 0.1% Formic Acid in Water. Mobile phase B: 0.1% Formic Acid in Acetonitrile. […] Flow rate 0.7 mL/min.

A further series has as its target T1, human 5-HT2B receptor (Homo sapiens, UniProt P41595).
T1 construct: host or cells: CHO cells (membrane homogenates)
The series is described as follows: 5-HT2B radioligand binding assay ([125I](±)DOI, CHO cell membranes). Particulars: read-out: 5-HT2B % @ 10 μM (binding affinity, % inhibition of control specific binding). On the procedure: Evaluation of the affinity of compounds for the human 5-HT2B receptor was determined in a radioligand binding assay at Eurofins/Cerep (France). Membrane homogenates prepared from CHO cells expressing the human 5HT2B receptor were incubated for 60 minutes at room temperature with 0.2 nM [1251](±)DOI (1-(4-iodo-2, 5-dimethoxyphenyl)propan-2-amine) in the absence or presence of the test compound in a buffer containing 50 mM Tris-HCl (pH 7.4), 5 mM MgCl2, 10 μM pargyline and 0.1% ascorbic acid. Nonspecific binding is determined in the presence of 1 μM (±)DOI. Following incubation, the samples were filtered rapidly under vacuum through glass fiber filters (GF/B, Packard) presoaked with 0.3% polyethyleneimine (PEI) and rinsed several times with ice-cold 50 mM Tris-HCl using a 96-sample cell harvester (Unifilter, Packard). The filters were dried and counted for radioactivity in a scintillation counter (Topcount, Packard) using a scintillation cocktail (Microscint 0, Packard). The results are expressed as a percent inhibition of the control radioligand specific binding. The standard reference compound was (±)DOI, which was tested in each experiment at several concentrations to obtain a competition curve from which its IC50 is calculated.

Series [2] in a line: PK experiments in rats: plasma compound (I) after oral dosing of prodrug. Type of series: in vivo, Wistar rats. To be noted: for Observed metabolite, in vivo PK study after oral dosing (rats): plasma. On the procedure: Plasma was placed on water-ice following collection. Final storage at approximately −70° C.
Mobile phase B: Acetonitrile. […] Flow rate 0.5 mL/min.
The rats had unrestricted access to the diet.
Mobile phase B: Acetonitrile+0.2% formic acid. […] Flow rate 0.3 mL/min.
Dosing and blood sampling: Han Wistar rats were supplied by Envigo, UK. […] The rats received a standard laboratory diet Teklad 2014C. The rats had unrestricted access to the diet. […] Rats were given […] (Ic), 487 ag/kg compound (7), 487 ag/kg Compound (4), 674 ag/kg compound (9), 359 ag/kg A6 and 551 ag/kg A2.

The next series relates to human hepatocytes. The series is described as follows: Conversion of compounds in human hepatocytes. Type of series: in vitro ADME. To be noted: 1 μM compound, 37° C.; nd: not detected. The procedure: Incubations were conducted in 96-well plates at 1 μM compound concentration in duplicate. The hepatocyte cell concentration was 0.5×10^6 cells/mL used for final incubation at 37° C. in an incubator of 5% CO2 95% relative humidity. The medium control samples were included at 0 and 60 minutes in the absence of cells. The total organic concentration was 1% (DMSO 0.1%) in the final incubation. The controls, (7-ethoxycoumarin and 7-hydroxycoumarin) was incubated parallel at […]. 2 μL of dosing solution (50 μM for test compounds and 100 μM for positive control) was mixed with 98 μL of 100 mM PBS to achieve 1 μM test compound and 2 μM positive control of final concentration. The mixture was incubated, and samples were withdrawn from the incubations at pre-determined time points of 0, 0.5, 1, 2, 4 and 6 hour (in duplicate) at 37° C. in water bath. To each sample, 10 μL inhibitor and 20 μL ascorbic acid and 2 μL formic acid (20%) were added followed by 400 μL of stop solution (200 ng/mL tolbutamide plus 200 ng/mL labetalol in 50% ACN/MeOH). The substance was mixed thoroughly and thereafter centrifuged at 4,000 rpm for 20 minutes. An aliquot of supernatant (50 μL) from each well were transferred to a sample plate and mixed with 100 μL ultrapure water. The plate was shaked at 800 rpm for about 10 minutes before submitting to LC-MS/MS analysis.
as §1, §2

T1 sequence (P41595 whole entry): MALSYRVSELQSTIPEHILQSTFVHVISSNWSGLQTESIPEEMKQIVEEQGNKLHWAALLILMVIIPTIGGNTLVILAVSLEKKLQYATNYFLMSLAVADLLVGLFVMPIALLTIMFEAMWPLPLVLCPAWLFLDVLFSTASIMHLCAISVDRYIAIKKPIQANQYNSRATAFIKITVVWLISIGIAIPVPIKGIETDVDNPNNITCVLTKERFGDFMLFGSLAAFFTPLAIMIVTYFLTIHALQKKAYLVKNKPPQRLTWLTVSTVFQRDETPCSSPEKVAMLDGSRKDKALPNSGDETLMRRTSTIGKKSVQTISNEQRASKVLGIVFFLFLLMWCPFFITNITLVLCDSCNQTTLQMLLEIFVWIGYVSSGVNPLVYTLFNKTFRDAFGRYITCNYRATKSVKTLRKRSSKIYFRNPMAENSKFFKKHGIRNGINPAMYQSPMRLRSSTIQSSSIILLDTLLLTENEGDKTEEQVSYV

Regarding `CCCN1CCC[C@@H]2Cc3c(ccc(O)c3O)C[C@H]21` [(I), (4aR,10aR)-1-Propyl-1,2,3,4,4a,5,10,10a-octahydro-benzo[g]quinoline-6,7-diol, reference compound], the “half-life in the plasma assay” value in series [1] (human plasma incubation) is on record as “short half-life”.

With `CCCN1CCC[C@@H]2Cc3c(ccc(OC(=O)C(C)(C)C)c3OC(=O)C(C)(C)C)C[C@H]21` [(Ic), reference compound], the inhibition at 10 µM on human 5-HT2B receptor is -5%. In addition, the “plasma concentrations of compound (I) after oral dosing (in words)” value in series [2] (Wistar rats, oral) is listed as “extremely low”.

In the case of `CCCN1CCC[C@@H]2Cc3c(ccc(O)c3O[C@@H]3O[C@H](COC(C)=O)[C@@H](OC(C)=O)[C@H](OC(C)=O)[C@H]3OC(C)=O)C[C@H]21` [Compound (2), (2R,3R,4S,5R,6S)-2-(acetoxymethyl)-6-(((4aR,10aR)-7-hydroxy-1-propyl-1,2,3,4,4a,5,10,10a-octahydrobenzo[g]quinolin-6-yl)oxy)tetrahydro-2H-pyran-3,4,5-triyl triacetate], on human 5-HT2B receptor, the inhibition at 10 µM is -6%. Further, the “Observed metabolite, incubation in human plasma” value is reported as “Glucuronide” in series [1] and “glucuronide derivative” in series [1] (listed as compound (2)).

With `CCCN1CCC[C@@H]2Cc3c(ccc(OC(C)=O)c3O[C@@H]3O[C@H](COC(C)=O)[C@@H](OC(C)=O)[C@H](OC(C)=O)[C@H]3OC(C)=O)C[C@H]21` [Compound (3), (2S,3R,4S,5R,6R)-2-(((4aR,10aR)-7-acetoxy-1-propyl-1,2,3,4,4a,5,10,10a-octahydrobenzo[g]quinolin-6-yl)oxy)-6-(acetoxymethyl)tetrahydro-2H-pyran-3,4,5-triyl triacetate], the inhibition at 10 µM at human 5-HT2B receptor is 18%. Also, the “Observed metabolite, incubation in human hepatocytes” value with human hepatocytes is reported as “Compound (4)”.

Take `CCCN1CCC[C@@H]2Cc3c(ccc(O)c3O[C@@H]3O[C@H](CO)[C@@H](O)[C@H](O)[C@H]3O)C[C@H]21` [Compound (4), (2S,3R,4S,5S,6R)-2-(((4aR,10aR)-7-hydroxy-1-propyl-1,2,3,4,4a,5,10,10a-octahydrobenzo[g]quinolin-6-yl)oxy)-6-(hydroxymethyl)tetrahydro-2H-pyran-3,4,5-triol]: on human 5-HT2B receptor, the inhibition at 10 µM was determined as 0%. The “Observed metabolite, incubation in human hepatocytes” value in the series on human hepatocytes is on record as “Compound (I)”. The “Observed metabolite, in vivo PK study after oral dosing (rats)” value (from here on “Observed metabolite, in vivo PK study”) is reported as “Compound (I)” in series [2] and “showed conversion in vivo” in series [2] (listed as compound (4)).

Turning to `CCCN1CCC[C@@H]2Cc3c(ccc(O[C@@H]4O[C@H](COC(C)=O)[C@@H](OC(C)=O)[C@H](OC(C)=O)[C@H]4OC(C)=O)c3O)C[C@H]21` [Compound (5), (2R,3R,4S,5R,6S)-2-(acetoxymethyl)-6-(((4aR,10aR)-6-hydroxy-1-propyl-1,2,3,4,4a,5,10,10a-octahydrobenzo[g]quinolin-7-yl)oxy)tetrahydro-2H-pyran-3,4,5-triyl triacetate], on human 5-HT2B receptor, the inhibition at 10 µM is 9%. For the same compound, the “Observed metabolite, incubation in human hepatocytes” value with human hepatocytes was “Compound (7)”. Further, in series [1], the “Observed metabolite, incubation in human plasma” value is “Compound (7)”.

For the compound `CCCN1CCC[C@@H]2Cc3c(ccc(O[C@@H]4O[C@H](COC(C)=O)[C@@H](OC(C)=O)[C@H](OC(C)=O)[C@H]4OC(C)=O)c3OC(C)=O)C[C@H]21` [Compound (6), (2S,3R,4S,5R,6R)-2-(((4aR,10aR)-6-acetoxy-1-propyl-1,2,3,4,4a,5,10,10a-octahydrobenzo[g]quinolin-7-yl)oxy)-6-(acetoxymethyl)tetrahydro-2H-pyran-3,4,5-triyl triacetate], the inhibition at 10 µM at human 5-HT2B receptor is -5%. The “Observed metabolite, incubation in human hepatocytes” value with human hepatocytes is listed as “Compound (7); also recorded: Compound (5)”. Besides, in series [1], the “Observed metabolite, incubation in human plasma” value was “Compound (7); also recorded: Compound (5)”.

With `CCCN1CCC[C@@H]2Cc3c(ccc(O[C@@H]4O[C@H](CO)[C@@H](O)[C@H](O)[C@H]4O)c3O)C[C@H]21` [Compound (7), (2S,3R,4S,5S,6R)-2-(((4aR,10aR)-6-hydroxy-1-propyl-1,2,3,4,4a,5,10,10a-octahydrobenzo[g]quinolin-7-yl)oxy)-6-(hydroxymethyl)tetrahydro-2H-pyran-3,4,5-triol], at human 5-HT2B receptor, the inhibition at 10 µM was 7%.

On to `CCCN1CCC[C@@H]2Cc3c(ccc(O[C@@H]4O[C@H](COC(C)=O)[C@@H](OC(C)=O)[C@H](OC(C)=O)[C@H]4OC(C)=O)c3O[C@@H]3O[C@H](COC(C)=O)[C@@H](OC(C)=O)[C@H](OC(C)=O)[C@H]3OC(C)=O)C[C@H]21` [Compound (8), [(2R,3R,4S,5R,6S)-6-[[(4aR,10aR)-1-propyl-6-[(2S,3R,4S,5R,6R)-3,4,5-triacetoxy-6-(acetoxymethyl)tetrahydropyran-2-yl]oxy-3,4,4a,5,10,10a-hexahydro-2H-benzo[g]quinolin-7-yl]oxy]-3,4,5-triacetoxy-tetrahydropyran-2-yl]methyl acetate], for which the inhibition at 10 µM on human 5-HT2B receptor is -12%.

For `CCCN1CCC[C@@H]2Cc3c(ccc(O[C@@H]4O[C@H](CO)[C@@H](O)[C@H](O)[C@H]4O)c3O[C@@H]3O[C@H](CO)[C@@H](O)[C@H](O)[C@H]3O)C[C@H]21` [Compound (9), (2R,2′R,3S,3′S,4S,4′S,5R,5′R,6S,6′S)-6,6′-(((4aR,10aR)-1-propyl-1,2,3,4,4a,5,10,10a-octahydrobenzo[g]quinoline-6,7-diyl)bis(oxy))bis(2-(hydroxymethyl)tetrahydro-2H-pyran-3,4,5-triol)], the inhibition at 10 µM on human 5-HT2B receptor was -5%. Besides, the “Observed metabolite, incubation in human hepatocytes” value in the series on human hepatocytes is “Compound (4); also recorded: Compound (7)”. Besides, the “Observed metabolite, incubation in human plasma” value in series [1] is given as “Compound (7)”. Besides, the “Observed metabolite, in vivo PK study” value in series [2] is given as “Compound (I)”.

As for `CCCN1CCC[C@@H]2Cc3c(ccc(OCc4ccccc4)c3O)C[C@H]21` [Compound A2, (4aR,10aR)-7-(benzyloxy)-1-propyl-1,2,3,4,4a,5,10,10a-octahydrobenzo[g]quinolin-6-ol], the inhibition at 10 µM at human 5-HT2B receptor worked out at 30%. Moreover, the “Observed metabolite, incubation in human hepatocytes” value in the series with human hepatocytes is on record as “Compound (I)”. Moreover, in series [1], the “Observed metabolite, incubation in human plasma” value is listed as “Compound (I)”. Also, in series [2], the “Observed metabolite, in vivo PK study” value is recorded as “Compound (I)”.

`CCCN1CCC[C@@H]2Cc3c(ccc(OC)c3O)C[C@H]21` [Compound A6, (4aR,10aR)-7-methoxy-1-propyl-1,2,3,4,4a,5,10,10a-octahydrobenzo[g]quinolin-6-ol]: at human 5-HT2B receptor, the inhibition at 10 µM was 24%. Besides, the “Observed metabolite, incubation in human hepatocytes” value in the series on human hepatocytes was “Compound (I)”. Besides, the “Observed metabolite, in vivo PK study” value in series [2] is “Compound (I)”.
